{"source": "patent US8729014B2", "about": "“Specific HCV NS3 protease inhibitors” (RFS Pharma, LLC, priority 2010, dated 2014)", "key": {"[1]": {"experiment": "Cytotoxicity assay in Vero cells", "assay_type": "cell-based", "conditions": "African green monkey, Vero cells", "procedure": "(§1) The toxicity of the compounds was assessed in Vero, human PBM, CEM (human lymphoblastoid), MT-2, and HepG2 cells, as described previously (see Schinazi R. F., Sommadossi J.-P., Saalmann V., Cannon D. L., Xie M.-Y., Hart G. C., Smith G. A. & Hahn E. F. Antimicrob. Agents Chemother. 1990, 34, 1061-67). Cycloheximide was included as positive cytotoxic control, and untreated cells exposed to solvent were included as negative controls. The cytotoxicity IC50 was obtained from the concentration-response curve using the median effective method described previously (see Chou T.-C. & Talalay P. Adv. Enzyme Regul. 1984, 22, 27-55; Belen'kii M. S. & Schinazi R. F. Antiviral Res. 1994, 25,1-11)."}, "Vero cells": {"tested_on": "Vero cells", "experiment": "Cytotoxicity assay in Vero cells", "assay_type": "cell-based", "conditions": "Chlorocebus sabaeus; VERO cells, 100 μM", "procedure": "as §1"}, "[2]": {"tested_on": "Huh 7 Clone B cells (rRNA)", "experiment": "HCV replicon assay, cytotoxicity by rRNA", "assay_type": "cell-based", "conditions": "five days", "procedure": "(§2) Huh 7 Clone B cells containing HCV replicon RNA would be seeded in a 96-well plate at 5000 cells/well, and the compounds tested at 10 μM in triplicate immediately after seeding. Following five days incubation (37° C., 5% CO2), total cellular RNA was isolated by using versaGene RNA purification kit from Gentra. Replicon RNA and an internal control (TaqMan rRNA control reagents, Applied Biosystems) were amplified in a single step multiplex Real Time RT-PCR Assay. The antiviral effectiveness of the compounds was calculated by subtracting the threshold RT-PCR cycle of the test compound from the threshold RT-PCR cycle of the no-drug control (ΔCt HCV). A ΔCt of 3.3 equals a 1-log reduction (equal to 90% less starting material) in Replicon RNA levels. The cytotoxicity of the compounds was also calculated by using the ΔCt rRNA values. (2′-Me-C) was used as the control. To determine EC90 and IC50 values^2, ΔCt: values were first converted into fraction of starting material^3 and then were used to calculate the % inhibition."}, "[3]": {"tested_on": "cellular rRNA (cytotoxicity marker)", "experiment": "HCV replicon assay, cytotoxicity by rRNA", "assay_type": "cell-based", "conditions": "human, Huh 7 Clone B cells containing HCV replicon RNA; rRNA, Huh 7 Clone B cells", "procedure": "as §2"}, "Cathepsin G": {"target": "Cathepsin G (Homo sapiens, UniProt P08311)", "experiment": "Inhibition of human proteases: cathepsin G", "assay_type": "biochemical"}, "Chymo-trypsin": {"tested_on": "Chymo-trypsin", "experiment": "Inhibition of human proteases: chymotrypsin", "assay_type": "biochemical"}, "Plasmin": {"target": "T1, Plasmin (Homo sapiens, UniProt P00747)", "T1 construct": "purchased Anaspec", "experiment": "Inhibition of human proteases: plasmin", "assay_type": "biochemical", "procedure": "(§3) In an effort to circumvent similar toxicities, new protease inhibitors were evaluated for inhibition of a panel of important human proteases. The enzymes tested are Elastase (Neutrophil), Plasmin, Thrombin, and Cathepsin S.\n(§4) Plasmin and Thrombin(Sensolyte RH110 Plasmin Activity Assay Kit and Sensolyte Thrombin Activity Assay Kit (Anaspec)): Reactions were conducted in a sample volume of 100 μL per well in a black 96 well plate. Protocol A was followed from the kit insert where the 2× assay buffer was diluted 1:1 with deionized water. Included in each assay were a positive control (diluted enzyme and no test compound), inhibitor control (contains diluted enzyme and plasmin inhibitor; component E from the kit or thrombin inhibitor; N-α-NAPAP synthetic inhibitor) and substrate control (assay buffer and substrate). Vehicle and autofluorescence controls were also performed. Drug dilutions were added (10 μL) at 10× concentrations in assay buffer. The enzyme was added at 40 μL/well at a concentration of 0.25 μg/mL (plasmin) and 1 μg/mL (thrombin) to all wells except the substrate control. Finally, 50 μL assay buffer containing substrate was added to each well. […] The fluorescence intensity was read on the Victor 3 plate reader at Ex/Em=490 nm/520 nm. […] Results are shown as substrate control adjusted percentages of maximum absorbance, which was given by the positive control."}, "Thrombin": {"target": "T2, Thrombin (Homo sapiens, UniProt P00734)", "T2 construct": "purchased Anaspec", "experiment": "Inhibition of human proteases: thrombin", "assay_type": "biochemical", "procedure": "as §3, §4"}, "[4]": {"target": "Hepatitis C Virus NS3/4A protease R155K (Hepatitis C virus genotype 1b, UniProt O92972, R1181K)", "experiment": "biochemical"}, "[5]": {"tested_on": "Hepatitis C Virus NS3/4A protease R155K", "experiment": "biochemical", "conditions": "R155K vs Wild Type"}, "[6]": {"target": "Hepatitis C Virus NS3/4A protease D168V (Hepatitis C virus genotype 1b, UniProt O92972, D1194V)", "experiment": "biochemical"}, "[7]": {"tested_on": "Hepatitis C Virus NS3/4A protease D168V", "experiment": "biochemical", "conditions": "D168V vs Wild Type"}, "[8]": {"target": "Hepatitis C Virus NS3/4A protease V36M (Hepatitis C virus genotype 1b, UniProt O92972, V1062M)", "experiment": "HCV NS3/4A protease FRET assay, V36M", "assay_type": "biochemical"}, "[9]": {"target": "T3, Hepatitis C Virus NS3/4A protease V170A (UniProt Q9WMX2, V1196A, species not given)", "T3 construct": "other: V170A; Anti-HCV protease activity EC90", "assay_type": "biochemical", "conditions": "V170A"}, "[10]": {"tested_on": "Hepatitis C Virus NS3/4A protease V170A", "assay_type": "biochemical", "conditions": "V170A vs Wild Type"}, "[11]": {"target": "Hepatitis C Virus NS3/4A protease T54A (Hepatitis C virus genotype 1b, UniProt O92972, T1080A)", "experiment": "biochemical"}, "[12]": {"tested_on": "Hepatitis C Virus NS3/4A protease T54A", "experiment": "biochemical", "conditions": "T54A vs Wild Type"}}}
{"compound": "C=C[C@@H]1C[C@]1(NC(=O)[C@@H]1C[C@@H](OC(=O)N2Cc3cccc(F)c3C2)CN1C(=O)[C@@H](NC(=O)OC(C)(C)C)C(C)(C)C)C(=O)NS(=O)(=O)C1CC1", "note": "[Compound 10]", "values": [{"measurement": "IC50", "setting": "[1]", "value": "> 100000", "unit": "nM"}, {"measurement": "inhibition at 100 µM", "setting": "Vero cells", "value": -0.8, "unit": "%"}, {"measurement": "DCt rRNA", "setting": "[2]; Conc 0.01 μM", "value": "−0.21"}, {"measurement": "rRNA (% inhibition)", "setting": "[2]; Conc 0.01 μM", "value": "−15.99"}, {"measurement": "DCt rRNA", "setting": "[2]; Conc 0.03 μM", "value": "−0.49"}, {"measurement": "rRNA (% inhibition)", "setting": "[2]; Conc 0.03 μM", "value": "−40.10"}, {"measurement": "DCt rRNA", "setting": "[2]; Conc 0.1 μM", "value": "−0.09"}, {"measurement": "rRNA (% inhibition)", "setting": "[2]; Conc 0.1 μM", "value": "−6.27"}, {"measurement": "DCt rRNA", "setting": "[2]; Conc 0.3 μM", "value": 0.14}, {"measurement": "rRNA (% inhibition)", "setting": "[2]; Conc 0.3 μM", "value": 9.35}, {"measurement": "CC50 at 5 days", "setting": "[3]", "value": "> 300", "unit": "nM"}, {"measurement": "IC50", "setting": "Cathepsin G", "value": "> 100000", "unit": "nM"}, {"measurement": "IC50", "setting": "Chymo-trypsin", "value": "> 100000", "unit": "nM"}, {"measurement": "IC50", "setting": "Plasmin", "value": "> 100000", "unit": "nM"}, {"measurement": "IC50", "setting": "Thrombin", "value": "> 100000", "unit": "nM"}, {"measurement": "EC50", "setting": "[4]", "value": 270, "unit": "nM"}, {"measurement": "EC90", "setting": "[4]; R155K, read-out: Anti-HCV protease activity EC90", "value": 2700, "unit": "nM"}, {"measurement": "Fold Increase of EC50", "setting": "[5]", "value": 55.8}, {"measurement": "Fold Increase of EC90", "setting": "[5]", "value": 91.4}, {"measurement": "EC50", "setting": "[6]", "value": 40, "unit": "nM"}, {"measurement": "EC90", "setting": "[6]; D168V, read-out: Anti-HCV protease activity EC90", "value": 630, "unit": "nM"}, {"measurement": "Fold Increase of EC50", "setting": "[7]", "value": 8.1}, {"measurement": "Fold Increase of EC90", "setting": "[7]", "value": 21.1}, {"measurement": "Fold Increase of EC50", "setting": "[8]; V36M vs Wild Type", "value": 0.7}, {"measurement": "Fold Increase of EC90", "setting": "[8]; V36M vs Wild Type", "value": 1.5}, {"measurement": "EC50", "setting": "[8]; V36M, read-out: Anti-HCV protease activity EC50", "value": 3.4, "unit": "nM"}, {"measurement": "EC90", "setting": "[8]; V36M, read-out: Anti-HCV protease activity EC90", "value": 45.5, "unit": "nM"}, {"measurement": "EC50", "setting": "[9]; read-out: Anti-HCV protease activity EC50", "value": 5.5, "unit": "nM"}, {"measurement": "EC90", "setting": "[9]; read-out: Anti-HCV protease activity EC90", "value": 9.5, "unit": "nM"}, {"measurement": "Fold Increase of EC50", "setting": "[10]", "value": 1.1}, {"measurement": "Fold Increase of EC90", "setting": "[10]", "value": 0.3}, {"measurement": "EC50", "setting": "[11]", "value": 70, "unit": "nM"}, {"measurement": "EC90", "setting": "[11]; T54A, read-out: Anti-HCV protease activity EC90", "value": 850, "unit": "nM"}, {"measurement": "Fold Increase of EC50", "setting": "[12]", "value": 15.0}, {"measurement": "Fold Increase of EC90", "setting": "[12]", "value": 28.5}]}
